Molecular target: T1, glucocorticoid receptor (Homo sapiens, UniProt P04150)
T1 construct: expressed in transfected cells
T1 sequence (P04150 524-758 limits assumed): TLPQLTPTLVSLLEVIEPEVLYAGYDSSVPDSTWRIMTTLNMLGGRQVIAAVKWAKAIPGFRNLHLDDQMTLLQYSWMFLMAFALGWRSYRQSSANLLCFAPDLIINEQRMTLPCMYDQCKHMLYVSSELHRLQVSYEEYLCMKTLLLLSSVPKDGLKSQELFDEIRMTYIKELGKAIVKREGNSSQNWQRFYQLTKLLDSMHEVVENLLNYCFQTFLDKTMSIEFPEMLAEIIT
Experiment: Agonistic mode of action on the glucocorticoid receptor (CHO-Gal4/GR luciferase reporter cell line)
Assay type: cell-based
Details: range class observed in the agonistic assay or the antagonistic assay (CHO-Gal4/GR reporter cells); table does not say which mode applies per example
Summary of the method: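 Agonism measured as dose-dependent luciferase luminescence (FLIPR Tetra) from a GAL4-UAS reporter driven by GAL4 DBD fused to GR ligand-binding domain in stable CHO cells. Eight half-log doses, 10 μM to 0.003 μM final in 0.5% DMSO, quadruplicate, on cells seeded 24 h earlier at 5000/well; EC50 derived.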

IC50 or EC50 (agonist or antagonist mode not specified) [nM] | SMILES
1000 to 15000 | Cc1nnc2n1-c1c(cc(F)c(-c3cccc4c3ccn4CCNC(=O)OC(C)(C)C)c1F)NC2(C)C [Example 228, N-[2-[4-(7,9-Difluoro-1,4,4-trimethyl-5H-[1,2,4]triazolo[4,3-a]quinoxalin-8-yl)-1H-indol-1-yl]-ethyl]-carbarmic acid tert-butyl ester]
100 to 1000 | Cc1c(-c2cc(F)cc3c(C)c[nH]c23)c(OC(F)(F)F)cc2c1-n1c(C)nnc1C(C)(C)N2 [Example 458, 8-(5-Fluoro-3-methyl-1H-indol-7-yl)-1,4,4,9-tetramethyl-7-(trifluoromethyloxy)-5H-[1,2,4]triazolo[4,3-a]quinoxaline]
100 to 1000 | Cc1nnc2n1-c1c(cc(F)c(-c3cccc4c(C(F)(F)F)c[nH]c34)c1F)NC2(C)C [Example 10, 7,9-difluoro-1,4,4-trimethyl-8-(3-(trifluoromethyl)-1H-indol-7-yl)-4,5-dihydro-[1,2,4]triazolo[4,3-a]quinoxaline]
1000 to 15000 | Cc1nnc2n1-c1c(cc(C(F)F)c(-c3cccc4[nH]ccc34)c1F)NC2(C)C [Example 343, 7-(Difluoro-methyl)-9-fluoro-8-(1H-indol-4-yl)-1,4,4-trimethyl-5H-[1,2,4]triazolo[4,3-a]quinoxaline]
1000 to 15000 | Cc1nnc2n1-c1c(cc(F)c(-c3cccc4c3ccn4CC(=O)N(C)C)c1F)NC2(C)C [Example 212, 2-[4-(7,9-Difluoro-1,4,4-trimethyl-5H-[1,2,4]triazolo[4,3-a]quinoxalin-8-yl)-1H-indol-1-yl]-N,N-dimethyl-acetamide]
1000 to 15000 | Cc1nnc2n1-c1c(cc(F)c(-c3cccc4c3cnn4S(=O)(=O)C3CC3)c1F)NC2(C)C [Example 234, 8-[1-(Cyclopropylsulfonyl)-1H-indazol-4-yl]-7,9-difluoro-1,4,4-trimethyl-5H-[1,2,4]triazolo[4,3-a]quinoxaline]
100 to 1000 | COc1c(-c2cc(C(F)(F)F)cc3[nH]ccc23)c(F)cc2c1-n1c(C)nnc1C(C)(C)N2 [Example 474, 7-Fluoro-9-methoxy-1,4,4-trimethyl-8-[6-(trifluoromethyl)-1H-indol-4-yl]-5H-[1,2,4]triazolo[4,3-a] quinoxaline]
< 100 | Cc1c[nH]c2c(-c3ccc4c(c3C(F)F)-n3c(C)nnc3C(C)(C)N4)cc(F)cc12 [Example 527, 9-(Difluoro-methyl)-8-(5-fluoro-3-methyl-1H-indol-7-yl)-1,4,4-trimethyl-5H-[1,2,4]triazolo [4,3-a]quinoxaline]
100 to 1000 | Cc1nnc2n1-c1c(cc(F)c(-c3cccc4c3cnn4C3CC3)c1F)NC2(C)C [Example 243, 8-(1-Cyclopropyl-1H-indazol-4-yl)-7,9-difluoro-1,4,4-trimethyl-5H-[1,2,4]triazolo[4,3-a]quinoxaline]
100 to 1000 | Cc1cc2c(c(C)c1-c1cc(F)cc3c1ccn3S(C)(=O)=O)-n1c(C)nnc1C(C)(C)N2 [Example 328, 8-(6-Fluoro-1-methylsulfonyl-1H-indol-4-yl)-1,4,4,7,9-pentamethyl-5H-[1,2,4]triazolo[4,3-a]quinoxaline]
1000 to 15000 | COCCn1ccc2c(-c3c(C(F)F)cc4c(c3F)-n3c(C)nnc3C(C)(C)N4)cc(F)cc21 [Example 396, 7-(Difluoro-methyl)-9-fluoro-8-[6-fluoro-1-(2-methoxy-ethyl)-1H-indol-4-yl]-1,4,4-trimethyl-5H-[1,2,4]triazolo[4,3-a]quinoxaline]
100 to 1000 | Cc1nnc2n1-c1c(cc(F)c(-c3ccc(F)c4[nH]ncc34)c1F)NC2(C)C [Example 501, 7,9-Difluoro-8-(7-fluoro-1H-indazol-4-yl)-1,4,4-trimethyl-5H-[1,2,4]triazolo[4,3-a]quinoxaline]
100 to 1000 | Cc1nnc2n1-c1c(cc(F)c(-c3cc(F)cc4c3cnn4S(C)(=O)=O)c1C(F)(F)F)NC2(C)C [Example 454, 7-Fluoro-8-(6-fluoro-1-methylsulfonyl-1H-indazol-4-yl)-1,4,4-trimethyl-9-(trifluoromethyl)-5H-[1,2,4]triazolo[4,3-a]quinoxaline]
< 100 | COc1c(-c2cc(F)cc3c(C4CC4)c[nH]c23)c(F)cc2c1-n1c(C)nnc1C(C)(C)N2 [Example 483, 8-(3-Cyclopropyl-5-fluoro-1H-indol-7-yl)-7-fluoro-9-methoxy-1,4,4-trimethyl-5H-[1,2,4]triazolo[4,3-a] quinoxaline]
1000 to 15000 | Cc1nnc2n1-c1c(cc(F)c(-c3cccc4c3ccn4S(=O)(=O)C(C)C)c1F)NC2(C)C [Example 200, 7,9-Difluoro-8-[1-(isopropylsulfonyl)-1H-indol-4-yl]-1,4,4-trimethyl-5H-[1,2,4]triazolo[4,3-a]quinoxaline]
100 to 1000 | CCc1nnc2n1-c1c(cc(F)c(-c3cccc4cc[nH]c34)c1F)NC2(C)C [Example 11, 1-ethyl-7,9-difluoro-8-(1H-indol-7-yl)-4,4-dimethyl-4,5-dihydro-[1,2,4]triazolo[4,3-a]quinoxaline]
< 100 | CC#Cc1c[nH]c2c(-c3c(F)cc4c(c3C)-n3c(COC)nnc3C(C)(C)N4)cc(F)cc12 [Example 76, 7-fluoro-8-(5-fluoro-3-(prop-1-yn-1-yl)-1H-indol-7-yl)-1-(methoxymethyl)-4,4,9-trimethyl-4,5-dihydro-[1,2,4]triazolo[4,3-a]quinoxaline]
100 to 1000 | Cc1c(-c2cccc3c(C#CC(C)(C)O)c[nH]c23)c(F)cc2c1-n1c(C)nnc1C(C)(C)N2 [Example 39]
100 to 1000 | COc1cc2c(c(C(F)(F)F)c1-c1cccc3c1ccn3C1CC1)-n1c(C)nnc1C(C)(C)N2 [Example 523, 8-(1-Cyclopropyl-1H-indol-4-yl)-7-methoxy-1,4,4-trimethyl-9-(trifluoromethyl)-5H-[1,2,4]triazolo[4,3-a]quinoxaline]
1000 to 15000 | CCn1cc2c(-c3c(F)cc4c(c3F)-n3c(C)nnc3C(C)(C)N4)cccc2n1 [Example 237, 8-(2-Ethyl-2H-indazol-4-yl)-7,9-difluoro-1,4,4-trimethyl-5H-[1,2,4]triazolo[4,3-a]quinoxaline]
1000 to 15000 | CCc1nnc2n1-c1c(cc(F)c(-c3cccc4c3cnn4C3CC3)c1C)NC2(C)C [Example 242, 8-(1-Cyclopropyl-1H-indazol-4-yl)-1-ethyl-7-fluoro-4,4,9-trimethyl-5H-[1,2,4]triazolo[4,3-a]quinoxaline]
